{"source": "patent US8959984B2", "about": "“Proteome-wide quantification of small molecule binding to cellular target proteins” (priority 2007, dated 2015)", "experiment_in_all_cases": "binding to AX14596 beads (HeLa lysate, SILAC MS)", "key": {"BLMH": {"target": "T1, BLMH (Homo sapiens, UniProt Q13867)", "T1 construct": "endogenous in cells; host or cells: HeLa S3", "T1 sequence (Q13867 1-455)": "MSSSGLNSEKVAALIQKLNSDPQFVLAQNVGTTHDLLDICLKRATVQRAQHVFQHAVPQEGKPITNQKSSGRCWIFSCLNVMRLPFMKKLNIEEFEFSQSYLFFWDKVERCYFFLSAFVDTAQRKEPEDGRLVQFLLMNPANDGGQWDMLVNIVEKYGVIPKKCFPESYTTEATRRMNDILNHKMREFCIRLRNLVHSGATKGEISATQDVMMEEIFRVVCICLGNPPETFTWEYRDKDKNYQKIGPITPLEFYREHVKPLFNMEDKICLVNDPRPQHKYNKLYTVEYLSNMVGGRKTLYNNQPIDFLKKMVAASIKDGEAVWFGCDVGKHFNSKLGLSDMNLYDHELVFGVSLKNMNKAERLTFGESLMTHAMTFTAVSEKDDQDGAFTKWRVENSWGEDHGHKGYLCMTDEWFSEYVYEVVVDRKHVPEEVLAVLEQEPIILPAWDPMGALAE", "procedure": "(§1) Differentially SILAC-encoded cell lysates were either incubated with the inhibitor beads displaying immobilized AX14596 or control resin devoid of ligand. In parallel, the supernatant from the first binding step was subjected to a second incubation with the AX14596 resin (FIG. 4). The resulting three elution fractions were combined, resolved by gel electrophoresis, proteolytically digested and the relative abundance of the retained proteins quantified. Proteins showing considerable binding to the control resin were identified as non-specific interactors and therefore not considered further. […] These target-specific ratios were similar in “label switch” experiments (FIGS. 6a and 6c). The binding equilibrium was determined in parallel control SILAC experiments as well as the excess of the immobilized compound over its cellular targets, the excess preferably being a molar excess (FIG. 7 and FIG. 8).\n(§2) Cysteine carbamidomethylation was set as a fixed modification and N-acetyl protein and oxidized methionine were allowed as variable modifications. Spectra that were determined to result from heavy labeled peptides in the pre-search detection of SILAC partners by MaxQuant were searched with the fixed modifications Lys^4, Lys^8, Arg^6 and Arg^10, whereas MS/MS spectra for which no SILAC state could be assigned before database searching were searched with Lys^4, Lys^8, Arg^6 and Arg^10 as variable modifications. The mass tolerance was set to 5 ppm for monoisotopic precursor ions and to 0.5 Da for MS/MS peaks. The minimum peptide length was set to 6 amino acids and up to three missed cleavages and three isotopically labeled amino acids were permitted per peptide. The accepted false discovery rate (FDR) was 1% for the proteins and peptides. The cut-off for the posterior error probability (PEP) of peptides was set to 10%. Peptide PEPs were determined by generating Mascot score and peptide-length-dependent histograms for both the forward and the reverse hits and then deriving the probability of a false identification for a given top-scoring peptide using Bayes' theorem. The PEPs of peptides belonging to the same proteins were then multiplied. Each peptide sequence was considered only once with the lowest PEP determined in case of multiple sequencing of the same isotopic pattern or of peptide species with different SILAC, charge or modification states. Proteins were then sorted according to their products of their peptide PEPs and included until a FDR of 1% was reached according to the fraction of reverse proteins contained in the protein list. In addition to the FDR threshold applied for protein identification, proteins were only included when they were identified with at least two peptides (of which one was required to be unique for the protein) and quantified if at least on quantifiable SILAC pair was associated with them. Outliers were not removed as protein ratios were calculated as the median instead of the average of all peptide ratios. For peptides shared among different identified proteins, SILAC ratios were only considered for the ratio of the protein identified with the highest number of unique peptides. Protein ratios for the different in vitro association experiments were corrected for the initial SILAC pooling ratio, which was determined from the median of protein ratios in pooled SILAC-encoded cell extracts."}, "EphB4": {"target": "EphB4 (Homo sapiens, UniProt P54760)", "sequence (P54760 16-987)": "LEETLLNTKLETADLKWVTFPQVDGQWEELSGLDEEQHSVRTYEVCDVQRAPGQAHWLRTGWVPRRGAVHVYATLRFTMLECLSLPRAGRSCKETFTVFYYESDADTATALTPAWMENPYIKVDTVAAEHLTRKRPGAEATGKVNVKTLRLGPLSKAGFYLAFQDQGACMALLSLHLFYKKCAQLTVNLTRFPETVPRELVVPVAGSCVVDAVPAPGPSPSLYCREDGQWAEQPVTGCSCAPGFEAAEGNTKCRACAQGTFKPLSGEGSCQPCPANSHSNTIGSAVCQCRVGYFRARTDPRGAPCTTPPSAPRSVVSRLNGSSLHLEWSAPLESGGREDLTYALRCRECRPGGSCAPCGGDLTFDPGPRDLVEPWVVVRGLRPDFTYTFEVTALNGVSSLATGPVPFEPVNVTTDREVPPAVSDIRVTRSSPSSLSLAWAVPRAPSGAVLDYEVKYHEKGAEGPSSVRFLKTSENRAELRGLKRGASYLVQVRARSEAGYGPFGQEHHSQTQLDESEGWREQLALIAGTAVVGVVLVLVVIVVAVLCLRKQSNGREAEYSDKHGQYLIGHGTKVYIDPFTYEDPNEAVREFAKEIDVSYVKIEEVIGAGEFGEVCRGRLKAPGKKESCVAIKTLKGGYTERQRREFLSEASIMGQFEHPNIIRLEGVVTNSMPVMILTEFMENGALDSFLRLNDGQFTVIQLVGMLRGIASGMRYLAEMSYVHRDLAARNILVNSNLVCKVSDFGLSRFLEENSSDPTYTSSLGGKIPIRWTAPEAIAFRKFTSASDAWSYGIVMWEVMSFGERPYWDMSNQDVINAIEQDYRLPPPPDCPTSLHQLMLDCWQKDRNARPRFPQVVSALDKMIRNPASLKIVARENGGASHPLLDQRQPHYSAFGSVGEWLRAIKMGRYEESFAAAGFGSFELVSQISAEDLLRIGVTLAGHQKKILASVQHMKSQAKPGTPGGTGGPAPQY", "procedure": "as §1, §2"}, "IGF2BP1": {"target": "IGF2BP1 (Homo sapiens, UniProt Q9NZI8)", "sequence (Q9NZI8 whole entry)": "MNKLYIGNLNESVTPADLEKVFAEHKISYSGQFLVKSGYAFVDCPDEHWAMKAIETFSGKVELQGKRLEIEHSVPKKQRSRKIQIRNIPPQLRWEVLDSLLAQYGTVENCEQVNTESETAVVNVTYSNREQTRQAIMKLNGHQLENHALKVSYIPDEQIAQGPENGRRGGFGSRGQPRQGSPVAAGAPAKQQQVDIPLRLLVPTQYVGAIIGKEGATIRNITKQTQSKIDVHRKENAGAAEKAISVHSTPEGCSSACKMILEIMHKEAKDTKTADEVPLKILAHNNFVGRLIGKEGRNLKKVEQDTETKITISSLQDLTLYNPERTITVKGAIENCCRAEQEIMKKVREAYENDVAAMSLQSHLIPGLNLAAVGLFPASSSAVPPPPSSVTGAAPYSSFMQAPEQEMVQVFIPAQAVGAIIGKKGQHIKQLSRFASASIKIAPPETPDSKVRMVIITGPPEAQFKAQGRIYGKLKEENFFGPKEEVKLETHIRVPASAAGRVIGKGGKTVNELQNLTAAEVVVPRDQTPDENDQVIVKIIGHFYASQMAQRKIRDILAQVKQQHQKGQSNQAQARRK", "procedure": "as §1, §2"}, "MET": {"target": "MET (Homo sapiens, UniProt P08581)", "sequence (P08581 25-1390)": "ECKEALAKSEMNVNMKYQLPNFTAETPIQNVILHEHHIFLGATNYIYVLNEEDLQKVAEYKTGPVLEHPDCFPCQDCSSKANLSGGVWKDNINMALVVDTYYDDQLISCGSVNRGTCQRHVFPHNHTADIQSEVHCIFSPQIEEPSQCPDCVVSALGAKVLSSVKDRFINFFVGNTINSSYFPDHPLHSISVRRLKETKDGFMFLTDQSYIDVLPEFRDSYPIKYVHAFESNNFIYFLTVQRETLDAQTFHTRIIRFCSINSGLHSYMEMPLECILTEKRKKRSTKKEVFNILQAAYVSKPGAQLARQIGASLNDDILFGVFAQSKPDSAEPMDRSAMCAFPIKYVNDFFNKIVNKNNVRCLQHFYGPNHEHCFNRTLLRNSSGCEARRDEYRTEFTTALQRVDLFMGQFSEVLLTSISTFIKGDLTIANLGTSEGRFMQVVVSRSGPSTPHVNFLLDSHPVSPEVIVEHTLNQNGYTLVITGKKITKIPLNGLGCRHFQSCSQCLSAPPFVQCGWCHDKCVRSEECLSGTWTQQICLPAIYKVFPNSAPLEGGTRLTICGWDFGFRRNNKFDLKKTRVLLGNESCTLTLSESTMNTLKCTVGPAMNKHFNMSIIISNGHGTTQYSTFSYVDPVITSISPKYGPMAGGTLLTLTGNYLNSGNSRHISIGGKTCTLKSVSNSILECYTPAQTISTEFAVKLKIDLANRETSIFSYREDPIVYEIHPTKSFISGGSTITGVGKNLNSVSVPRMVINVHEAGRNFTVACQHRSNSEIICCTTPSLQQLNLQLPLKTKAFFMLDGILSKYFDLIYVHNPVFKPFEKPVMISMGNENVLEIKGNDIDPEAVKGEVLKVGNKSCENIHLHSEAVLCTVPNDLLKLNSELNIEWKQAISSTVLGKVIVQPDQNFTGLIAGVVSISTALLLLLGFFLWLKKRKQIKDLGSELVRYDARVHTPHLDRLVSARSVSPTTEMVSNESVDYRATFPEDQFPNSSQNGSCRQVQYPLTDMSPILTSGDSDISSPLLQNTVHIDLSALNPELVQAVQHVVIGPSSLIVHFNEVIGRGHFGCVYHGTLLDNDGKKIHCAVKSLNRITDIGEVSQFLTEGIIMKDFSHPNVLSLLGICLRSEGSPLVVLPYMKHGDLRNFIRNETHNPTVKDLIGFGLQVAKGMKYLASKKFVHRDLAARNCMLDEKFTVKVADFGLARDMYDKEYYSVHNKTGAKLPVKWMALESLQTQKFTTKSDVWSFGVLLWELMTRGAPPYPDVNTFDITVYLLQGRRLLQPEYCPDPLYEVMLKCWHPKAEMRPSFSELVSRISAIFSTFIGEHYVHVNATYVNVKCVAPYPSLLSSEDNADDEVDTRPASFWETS", "procedure": "as §1, §2"}, "PKD2 (PRKD2)": {"target": "PKD2 (PRKD2) (Homo sapiens, UniProt Q9BZL6)", "sequence (Q9BZL6 whole entry)": "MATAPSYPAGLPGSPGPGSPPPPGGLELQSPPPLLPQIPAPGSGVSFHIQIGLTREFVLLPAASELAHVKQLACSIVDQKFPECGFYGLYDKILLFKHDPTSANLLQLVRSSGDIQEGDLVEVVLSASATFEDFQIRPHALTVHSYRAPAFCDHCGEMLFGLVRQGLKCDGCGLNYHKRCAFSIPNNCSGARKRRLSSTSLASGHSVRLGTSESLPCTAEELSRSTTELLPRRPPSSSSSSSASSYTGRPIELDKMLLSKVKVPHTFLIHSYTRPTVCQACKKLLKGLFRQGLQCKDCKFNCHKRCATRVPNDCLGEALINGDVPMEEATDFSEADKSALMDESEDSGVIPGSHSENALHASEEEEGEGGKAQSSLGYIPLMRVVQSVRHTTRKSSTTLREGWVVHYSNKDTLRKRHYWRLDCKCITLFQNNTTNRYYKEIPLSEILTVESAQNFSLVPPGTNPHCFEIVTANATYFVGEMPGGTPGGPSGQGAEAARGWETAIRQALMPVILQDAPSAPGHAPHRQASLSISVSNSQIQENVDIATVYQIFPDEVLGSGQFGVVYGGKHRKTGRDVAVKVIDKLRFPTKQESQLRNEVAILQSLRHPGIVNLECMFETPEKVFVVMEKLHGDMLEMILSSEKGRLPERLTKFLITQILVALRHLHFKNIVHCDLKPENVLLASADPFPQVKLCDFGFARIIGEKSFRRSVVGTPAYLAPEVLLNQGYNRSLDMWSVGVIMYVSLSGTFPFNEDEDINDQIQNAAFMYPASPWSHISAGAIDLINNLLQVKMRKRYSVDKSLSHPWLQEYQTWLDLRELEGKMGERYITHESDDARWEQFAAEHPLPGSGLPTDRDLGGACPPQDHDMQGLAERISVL", "procedure": "as §1, §2"}, "[1]": {"target": "p38a (MAPK14, IPI00002857) (Homo sapiens, UniProt Q16539)", "sequence (Q16539 whole entry)": "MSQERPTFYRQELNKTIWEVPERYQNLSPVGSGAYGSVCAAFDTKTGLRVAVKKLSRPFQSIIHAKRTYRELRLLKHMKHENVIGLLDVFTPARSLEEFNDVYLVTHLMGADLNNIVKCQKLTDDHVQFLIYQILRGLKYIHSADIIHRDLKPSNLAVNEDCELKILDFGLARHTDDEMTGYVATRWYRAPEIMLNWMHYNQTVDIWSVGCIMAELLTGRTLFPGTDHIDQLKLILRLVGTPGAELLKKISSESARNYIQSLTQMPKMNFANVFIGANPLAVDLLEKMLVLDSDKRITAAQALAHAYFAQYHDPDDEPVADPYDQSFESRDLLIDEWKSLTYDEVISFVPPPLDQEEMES", "procedure": "as §1, §2"}}}
{"smiles": "COc1cc2ncnc(Nc3ccc(F)c(Cl)c3)c2cc1OCCCN", "note": "[AX14596]", "values": [{"measurement": "Ki", "setting": "BLMH", "value": 53.6, "unit": "µM"}, {"measurement": "r (3 mg/1 mg lysate)", "setting": "BLMH", "value": 11.91}, {"measurement": "r (5 h/2.5 h inc. time)", "setting": "BLMH", "value": 1.31}, {"measurement": "rAVERAGE (2. inc/1. inc)", "setting": "BLMH", "value": 0.35}, {"measurement": "rAVERAGE (control/1. inc)", "setting": "BLMH", "value": 0.08}, {"measurement": "Ki", "setting": "EphB4", "value": 242, "unit": "µM"}, {"measurement": "r (3 mg/1 mg lysate)", "setting": "EphB4", "value": 2.65}, {"measurement": "r (5 h/2.5 h inc. time)", "setting": "EphB4", "value": 0.96}, {"measurement": "rAVERAGE (2. inc/1. inc)", "setting": "EphB4", "value": 0.71}, {"measurement": "rAVERAGE (control/1. inc)", "setting": "EphB4", "value": 0.05}, {"measurement": "% BOUND", "setting": "EphB4; bound to AX14596 beads", "value": 29, "unit": "%"}, {"measurement": "Ki", "setting": "IGF2BP1", "value": 367, "unit": "µM"}, {"measurement": "rAVERAGE (2. inc/1. inc)", "setting": "IGF2BP1", "value": 0.79}, {"measurement": "rAVERAGE (control/1. inc)", "setting": "IGF2BP1", "value": 0.19}, {"measurement": "Ki", "setting": "MET", "value": 267, "unit": "µM"}, {"measurement": "r (3 mg/1 mg lysate)", "setting": "MET", "value": 2.30}, {"measurement": "r (5 h/2.5 h inc. time)", "setting": "MET", "value": 1.12}, {"measurement": "rAVERAGE (2. inc/1. inc)", "setting": "MET", "value": 0.73}, {"measurement": "rAVERAGE (control/1. inc)", "setting": "MET", "value": 0.06}, {"measurement": "% BOUND", "setting": "MET; bound to AX14596 beads", "value": 27, "unit": "%"}, {"measurement": "Ki", "setting": "PKD2 (PRKD2)", "value": 385, "unit": "µM"}, {"measurement": "r (3 mg/1 mg lysate)", "setting": "PKD2 (PRKD2)", "value": 2.53}, {"measurement": "r (5 h/2.5 h inc. time)", "setting": "PKD2 (PRKD2)", "value": 0.96}, {"measurement": "rAVERAGE (2. inc/1. inc)", "setting": "PKD2 (PRKD2)", "value": 0.79}, {"measurement": "rAVERAGE (control/1. inc)", "setting": "PKD2 (PRKD2)", "value": 0.08}, {"measurement": "Ki", "setting": "[1]", "value": 332, "unit": "µM"}, {"measurement": "r (3 mg/1 mg lysate)", "setting": "[1]", "value": 2.74}, {"measurement": "r (5 h/2.5 h inc. time)", "setting": "[1]", "value": 1.15}, {"measurement": "rAVERAGE (2. inc/1. inc)", "setting": "[1]", "value": 0.77}, {"measurement": "rAVERAGE (control/1. inc)", "setting": "[1]", "value": 0.06}]}
